The term IC50 denotes the point on the concentration scale where inhibition reaches its midpoint.

What all share (type): cell-based
Assay [1] addresses T1, PTGER2 (EP2) (Homo sapiens, UniProt P43116).
T1 construct: host or cells: HEK 293 (PathHunter PTGER2 b-arrestin cell line)
Put plainly: hEP2 b-arrestin assay (PathHunter HEK 293 PTGER2 b-arrestin cells). Conditions: antagonistic activity, beta-arrestin assay; read-out: hEP2 b-arr IC50. Put shortly: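 PathHunter HEK293 cells with ProLink-tagged EP2 and EA-β-arrestin 2 preincubated 15 min at 37 °C with compound (10 μM-2 nM or 1 μM-0.2 nM), then stimulated 120 min with 5 μM PGE2 (EC80). β-gal complementation read by chemiluminescence; IC50 from duplicate dose-response versus DMSO.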

Assay [2] has as its target T2, PTGER4 (EP4) (Homo sapiens, UniProt P35408).
T2 construct: host or cells: HEK 293 (PathHunter PTGER4 b-arrestin cell line)
Put plainly: hEP4 b-arrestin assay (PathHunter HEK 293 PTGER4 b-arrestin cells). Conditions: antagonistic activity, beta-arrestin assay; read-out: hEP4 b-arr IC50. Summed up:
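PathHunter HEK 293 cells expressing ProLink-tagged human EP4 and EA-β-arrestin 2, seeded 24 h before. Compounds (10 μM–2 nM or 1 μM–0.2 nM) preincubated 15 min at 37 °C, then 20 nM PGE2 (EC80) for 120 min at 37 °C. β-gal complementation luminescence read; IC50 from duplicate dose-response curves versus DMSO control.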

In assay [3] the target is T3, EP4 receptor (Homo sapiens, UniProt P35408).
T3 construct: BT549 breast cancer cells, express high endogenous EP4 levels and very low EP2 levels; host or cells: BT549 breast cancer cells
Put plainly: hEP4 cAMP assay (BT549 breast cancer cells, HTRF cAMP, PGE2 stimulation). Conditions: antagonistic activity, PGE2 6 nM (EC80). Summed up: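 BT549 cells, with endogenous EP4 and very low EP2, were preincubated 45 min at room temperature with compound in HBSS/HEPES/BSA buffer with 2 mM IBMX. They were then stimulated 30 min with 6 nM PGE2 (EC80). cAMP was measured by HTRF competitive immunoassay against a calibrator; IC50 from duplicate dose-response as % of DMSO control.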

T1 sequence (P43116 whole entry): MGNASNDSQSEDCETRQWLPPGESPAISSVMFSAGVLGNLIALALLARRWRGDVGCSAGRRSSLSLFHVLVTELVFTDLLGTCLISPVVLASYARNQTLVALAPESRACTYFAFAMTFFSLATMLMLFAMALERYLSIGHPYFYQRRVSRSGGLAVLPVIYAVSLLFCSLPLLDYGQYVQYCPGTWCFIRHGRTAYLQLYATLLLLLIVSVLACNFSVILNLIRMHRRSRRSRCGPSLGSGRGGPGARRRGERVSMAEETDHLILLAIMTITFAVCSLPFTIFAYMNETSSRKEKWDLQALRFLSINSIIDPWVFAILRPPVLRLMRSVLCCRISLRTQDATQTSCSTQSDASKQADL
T2 sequence (P35408 whole entry): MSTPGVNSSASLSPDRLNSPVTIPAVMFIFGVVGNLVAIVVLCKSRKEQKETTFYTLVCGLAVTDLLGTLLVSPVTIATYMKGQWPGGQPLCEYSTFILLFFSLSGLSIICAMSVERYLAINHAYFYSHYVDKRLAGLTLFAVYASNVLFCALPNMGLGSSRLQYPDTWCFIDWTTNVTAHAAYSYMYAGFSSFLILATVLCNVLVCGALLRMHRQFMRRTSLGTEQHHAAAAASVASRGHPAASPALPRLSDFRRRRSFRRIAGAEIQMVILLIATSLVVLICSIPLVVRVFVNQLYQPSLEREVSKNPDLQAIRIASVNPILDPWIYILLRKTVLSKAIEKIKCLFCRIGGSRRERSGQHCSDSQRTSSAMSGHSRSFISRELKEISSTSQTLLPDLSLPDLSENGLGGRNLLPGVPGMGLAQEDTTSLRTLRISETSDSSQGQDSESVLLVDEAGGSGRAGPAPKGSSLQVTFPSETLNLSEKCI
T3 sequence (P35408 whole entry): as above

For `CCc1nc(-c2cc(NCCc3c(C)sc4c(C)cc(F)cc34)ncn2)sc1C(=O)O` [Example 161, 4-Ethyl-2-{6-[2-(5-fluoro-2,7-dimethyl-benzo[b]thiophen-3-yl)-ethylamino]-pyrimidin-4-yl}-thiazole-5-carboxylic acid], the IC50 in assay [1] was found to be 61 nM; in assay [2], 256 nM; in assay [3] it was 363 nM.

Turning to `CCOc1nc(-c2cc(NCCc3c(C)sc4c(C)cc(F)cc34)ncn2)sc1-c1noc(=O)[nH]1` [Example 162, 3-(4-Ethoxy-2-{6-[2-(5-fluoro-2,7-dimethyl-benzo[b]thiophen-3-yl)-ethylamino]-pyrimidin-4-yl}-thiazol-5-yl)-[1,2,4]oxadiazol-5(4H)-one [tautomeric form: 3-(4-ethoxy-2-(6-((2-(5-fluoro-2,7-dimethylbenzo[b]thiophen-3-yl)ethyl)amino)pyrimidin-4-yl)thiazol-5-yl)-[1,2,4]oxadiazol-5-ol]], the IC50 in assay [1] came to 6 nM; in assay [2], 5 nM; in assay [3], 51 nM.

Consider `CCc1nc(-c2cc(NCCc3c(C)sc4c(C)cc(F)cc34)ncn2)sc1-c1noc(=O)[nH]1` [Example 163, 3-(4-Ethyl-2-{6-[2-(5-fluoro-2,7-dimethyl-benzo[b]thiophen-3-yl)-ethylamino]-pyrimidin-4-yl}-thiazol-5-yl)-[1,2,4]oxadiazol-5(4H)-one [tautomeric form: 3-(4-ethyl-2-(6-((2-(5-fluoro-2,7-dimethylbenzo[b]thiophen-3-yl)ethyl)amino)pyrimidin-4-yl)thiazol-5-yl)-[1,2,4]oxadiazol-5-ol]], for which the results for the IC50 in assay [1], in assay [2] and in assay [3] were 26 nM, 17 nM and 429 nM, respectively.

Consider `CCOc1cc(-c2cc(NCCc3c(C#N)sc4c(OC)cccc34)ncn2)ccc1CC(=O)O` [Example 164, (4-{6-[2-(2-Cyano-7-methoxy-benzo[b]thiophen-3-yl)-ethylamino]-pyrimidin-4-yl}-2-ethoxy-phenyl)-acetic acid], for which the IC50 in assay [1] was found to be 504 nM; in assay [2], 50 nM; in assay [3] it was 17 nM.

Consider `CCOc1cc(-c2cc(NCCc3c(C#N)sc4c(C)cc(F)cc34)ncn2)cc(F)c1CC(=O)O` [Example 165, (4-{6-[2-(2-Cyano-5-fluoro-7-methyl-benzo[b]thiophen-3-yl)-ethylamino]-pyrimidin-4-yl}-2-ethoxy-6-fluoro-phenyl)-acetic acid], for which the IC50 in assay [1] worked out at 28 nM; in assay [2] it was 54 nM; in assay [3] it was 40 nM.

Turning to `Cc1sc2c(C)cccc2c1CCNc1cc(-c2ccc(C(=O)O)c(SCC(C)C)c2)ncn1` [Example 166, 4-{6-[2-(2,7-Dimethyl-benzo[b]thiophen-3-yl)-ethylamino]-pyrimidin-4-yl}-2-isobutylsulfanyl-benzoic acid], the IC50 was determined as 31 nM in assay [1], 254 nM in assay [2] and 1130 nM in assay [3].

For the molecule `CCCc1cc(-c2cc(NCCc3c(C#N)sc4c(C)cc(F)cc34)ncn2)ccc1C(=O)O` [Example 167, 4-{6-[2-(2-Cyano-5-fluoro-7-methyl-benzo[b]thiophen-3-yl)-ethylamino]-pyrimidin-4-yl}-2-propyl-benzoic acid], the IC50 in assay [1] came to 5 nM; in assay [2], 34 nM; in assay [3], 29 nM.

In the case of `COc1cc(-c2cc(NCCc3c(C#N)sc4c(C)cc(F)cc34)ncn2)ccc1CC(=O)O` [Example 168, (4-{6-[2-(2-Cyano-5-fluoro-7-methyl-benzo[b]thiophen-3-yl)-ethylamino]-pyrimidin-4-yl}-2-methoxy-phenyl)-acetic acid], the values for the IC50 in assay [1], in assay [2] and in assay [3] were 65 nM, 66 nM and 2990 nM, respectively.

In the case of `CCCOc1cc(-c2cc(NCCc3c(C#N)sc4c(C)cc(F)cc34)ncn2)ccc1CC(=O)O` [Example 169, (4-{6-[2-(2-Cyano-5-fluoro-7-methyl-benzo[b]thiophen-3-yl)-ethylamino]-pyrimidin-4-yl}-2-propoxy-phenyl)-acetic acid], the IC50 in assay [1] was 30 nM; in assay [2] it was 100 nM; in assay [3] it was 30 nM.

Consider `CCCc1cc(-c2cc(NCCc3c(C#N)sc4c(C)cc(F)cc34)ncn2)ccc1CC(=O)O` [Example 170, (4-{6-[2-(2-Cyano-5-fluoro-7-methyl-benzo[b]thiophen-3-yl)-ethylamino]-pyrimidin-4-yl}-2-propyl-phenyl)-acetic acid], for which the IC50 in assay [1] was found to be 19 nM; in assay [2], 19 nM; in assay [3], 13 nM.

Turning to `Cc1cc(F)cc2c(CCNc3cc(-c4ccc(CC(=O)O)c(OC(C)C)c4)ncn3)c(C#N)sc12` [Example 171, (4-{6-[2-(2-Cyano-5-fluoro-7-methyl-benzo[b]thiophen-3-yl)-ethylamino]-pyrimidin-4-yl}-2-isopropoxy-phenyl)-acetic acid], the IC50 in assay [1] was found to be 59 nM; in assay [2], 57 nM; in assay [3], 42 nM.

Regarding `Cc1cc(F)cc2c(CCNc3cc(-c4ccc(C(=O)O)c(OC(C)C)c4)ncn3)c(C#N)sc12` [Example 172, 4-{6-[2-(2-Cyano-5-fluoro-7-methyl-benzo[b]thiophen-3-yl)-ethylamino]-pyrimidin-4-yl}-2-isopropoxy-benzoic acid], the IC50 turned out to be 40 nM in assay [1], 166 nM in assay [2] and 70 nM in assay [3].

Turning to `CCOc1cc(-c2cc(NCCc3c(C#N)sc4c(C)cc(F)cc34)ncn2)ccc1OCCC(=O)O` [Example 176, 3-(4-{6-[2-(2-Cyano-5-fluoro-7-methyl-benzo[b]thiophen-3-yl)-ethylamino]-pyrimidin-4-yl}-2-ethoxy-phenoxy)-propionic acid], the IC50 in assay [1] was 9 nM; in assay [2], 19 nM; in assay [3], 12 nM.

In the case of `Cc1sc2c(C)cc(F)cc2c1CCNc1cc(-c2ccc(CC(=O)O)c(CC(C)C)c2)ncn1` [Example 182, (4-{6-[2-(5-Fluoro-2,7-dimethyl-benzo[b]thiophen-3-yl)-ethylamino]-pyrimidin-4-yl}-2-isobutyl-phenyl)-acetic acid], the IC50 in assay [1] was 41 nM; in assay [2] it was 164 nM; in assay [3] it was 378 nM.

Take `Cc1sc2c(C)cc(F)cc2c1CCNc1cc(-c2ccc(C(=O)O)c(OCC(C)C)c2)ncn1` [Example 184, 4-{6-[2-(5-Fluoro-2,7-dimethyl-benzo[b]thiophen-3-yl)-ethylamino]-pyrimidin-4-yl}-2-isobutoxy-benzoic acid]: the IC50 was 7 nM in assay [1], 311 nM in assay [2] and 553 nM in assay [3].

Take `CCCc1cc(-c2cc(NCCc3c(C)sc4c(C)cc(F)cc34)ncn2)ccc1CC(=O)O` [Example 186, (4-{6-[2-(5-Fluoro-2,7-dimethyl-benzo[b]thiophen-3-yl)-ethylamino]-pyrimidin-4-yl}-2-propyl-phenyl)-acetic acid]: the IC50 in assay [1] worked out at 22 nM; in assay [2], 242 nM; in assay [3], 252 nM.

Turning to `CCOc1cc(-c2cc(NCCc3c(C)sc4c(C)cc(F)cc34)ncn2)ccc1C(=O)C(=O)O` [Example 189, (2-Ethoxy-4-{6-[2-(5-fluoro-2,7-dimethyl-benzo[b]thiophen-3-yl)-ethylamino]-pyrimidin-4-yl}-phenyl)-oxo-acetic acid], the IC50 in assay [1] worked out at 20 nM; in assay [2] it was 92 nM; in assay [3], 121 nM.

On to `CCCOc1cc(-c2cc(NCCc3c(C)sc4c(C)cc(F)cc34)ncn2)ccc1CC(=O)O` [Example 190, (4-{6-[2-(5-Fluoro-2,7-dimethyl-benzo[b]thiophen-3-yl)-ethylamino]-pyrimidin-4-yl}-2-propoxy-phenyl)-acetic acid], for which the IC50 turned out to be 28 nM in assay [1], 200 nM in assay [2] and 219 nM in assay [3].

These data come from patent publication US11325899B2, “Benzofurane and benzothiophene derivatives as PGE2 receptor modulators” (IDORSIA PHARMACEUTICALS LTD, priority 2017, dated 2022).
